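These data come from cells grown in 96-well plates and exposed to compound for 48 hours at five concentrations. TGI marks complete inhibition of growth.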
What was measured:
Assay in all cases: DTP human tumour cell line panel, 48 h
CCRF-CEM leukemia = tested on: CCRF-CEM leukemia
HOP-62 NSCLC = tested on: HOP-62 NSCLC
MDA-MB-231 breast = tested on: MDA-MB-231 breast
RXF 393 renal = tested on: RXF 393 renal
SF-268 CNS = tested on: SF-268 CNS
SW-620 colon = tested on: SW-620 colon
TK-10 renal = tested on: TK-10 renal
SN12C renal = tested on: SN12C renal
MOLT-4 leukemia = tested on: MOLT-4 leukemia
SF-539 CNS = tested on: SF-539 CNS

Compound	TGI (CCRF-CEM leukemia) [µM]	TGI (HOP-62 NSCLC) [µM]	TGI (MDA-MB-231 breast) [µM]	TGI (RXF 393 renal) [µM]	TGI (SF-268 CNS) [µM]	TGI (SW-620 colon) [µM]	TGI (TK-10 renal) [µM]	TGI (SN12C renal) [µM]	TGI (MOLT-4 leukemia) [µM]	TGI (SF-539 CNS) [µM]
C=C1c2nc3ccccc3n2C=C(c2ccc(OC)cc2)N1c1ccc(OCCN2CCOCC2)cc1	> 86.9	> 100	> 100	> 100	> 31.9	> 100	> 100	> 100	> 100	> 100
C=CCC(SC)C1=C(C)C(=O)c2ccccc21 (stereo not given)	> 10	> 10	> 10	> 10	> 10	> 10	> 10	> 10	> 10	> 10
O=C(O)CC(O)(C(=O)O)C(O)C(=O)O (stereo not given)	> 1000	> 1000	> 1000	> 1000	> 1000	> 1000	> 1000	> 1000	> 1000	> 1000
C=CCC(CNC(=O)OCc1ccccc1)OC(=O)OCc1ccccc1 (stereo not given)	> 100	> 100	> 100	> 100	> 100	> 100	> 100	> 100	> 100	> 100
O=C1OC(=O)C2C1C(c1ccccc1[N+](=O)[O-])C=C(c1ccco1)N2c1ccncc1 (stereo not given)	17	38.2	32.9	19.1	46.3	15	> 26.9	25	6.38	16.6
CC1CC[C@@]2(OC1)OC1C[C@H]3[C@@H]4CCC5CC(O)CC[C@]5(C)[C@H]4C/C(=N\N(C)C)[C@]3(C)C1[C@@H]2C (stereo not given in full)	> 100	54.7	50.2	37.7	99.4	> 100	86.9	64.7	> 100	60.9
CCOP(=O)(OCC)C(Nc1ccc(F)cc1)c1ccccc1 (stereo not given)	> 100	> 100	> 100	> 100	> 100	> 100	> 100	> 100	> 100	> 100
Cc1cccc(NC2=NCCO2)c1Cl	> 100	> 100	> 100	> 100	> 100	> 100	> 100	> 100	> 100	> 100
CCCC1(N)CC(OC)OC(C)C1O (stereo not given)	> 100	> 100	> 100	> 100	> 100	> 100	> 100	> 100	> 100	> 100
CCOC(=O)CC[C@H](N)C(=O)N[C@H](Cc1ccc(N(CCCl)CCCl)cc1)C(=O)OCC	> 100	13.6	16.2	3.66	11.3	14.1	8.51	16.7	31.5	8.83

— PubChem BioAssay (NCI)
